Experiments:
[1] = system: MCF7; test: Cytotoxicity against human MCF7 cells; type: functional
[2] = system: HeLa; test: Cytotoxicity against human HeLa cells; type: functional
[3] = system: P388; test: Antitumor activity against mouse P388 cells xenografted in mouse assessed as median life span at 12 mg/kg, ip q4d for 3 days measured for 60 days; type: functional; details: route intraperitoneal
[4] = system: P388; test: Antitumor activity against mouse P388 cells xenografted in mouse assessed as median life span at 6 mg/kg, ip q4d for 3 days measured for 60 days; type: functional; details: route intraperitoneal
[5] = system: P388; test: Antitumor activity against mouse P388 cells xenografted in mouse assessed as median life span at 8 mg/kg, ip q4d for 3 days measured for 60 days; type: functional; details: route intraperitoneal
[6] = system: P388; test: Antitumor activity against mouse P388 cells xenografted in mouse assessed as median life span at 4 mg/kg, ip q4d for 3 days measured for 60 days; type: functional; details: route intraperitoneal
[7] = system: P388; test: Antitumor activity against mouse P388 cells xenografted in mouse assessed as median life span at 2 mg/kg, ip q4d for 3 days measured for 60 days; type: functional; details: route intraperitoneal
[8] = system: P388; test: Antitumor activity against mouse P388 cells xenografted in mouse assessed as median life span at 3 mg/kg, ip q4d for 3 days measured for 60 days; type: functional; details: route intraperitoneal
[9] = Toxicity to mouse assessed as mortality at 12 mg/kg, ip q4d for 3 days; type: organism-based; design: dose 12 mg/kg, route intraperitoneal; details: in vivo, read-out: Activity

SMILES | GI50 [1] [nM] | GI50 [2] [nM] | other results
CCC1=C[C@H]2CN(C1)Cc1c([nH]c3ccc(C(=O)OC)cc13)[C@@](C(=O)OC)(c1cc3c(cc1OC)N(C)[C@H]1[C@@](O)(C(=O)OC)[C@H](OC(C)=O)[C@]4(CC)CC=CN5CC[C@]31[C@@H]54)C2 | 50 | 30 | –
CCSc1ccc2[nH]c3c(c2c1)CCN1C[C@H](C[C@@](O)(CC)C1)C[C@]3(C(=O)OC)c1cc2c(cc1OC)N(C=O)[C@H]1[C@@](O)(C(=O)OC)[C@H](OC(C)=O)[C@]3(CC)CC=CN4CC[C@]21[C@@H]43 | 8 | 6 | T/C [3]: 105%; T/C [4]: 107%
CCC1=C[C@H](C[C@](C(=O)OC)(c2cc3c(cc2OC)N(C)[C@H]2[C@@](O)(C(=O)OC)[C@H](OC(C)=O)[C@]4(CC)CC=CN5CC[C@]32[C@@H]54)c2[nH]c3ccc(N)cc3c2CC)CNC1 | 600 | 300 | –
CCC1=C[C@H]2CN(C1)Cc1c([nH]c3ccc(C(N)=O)cc13)[C@@](C(=O)OC)(c1cc3c(cc1OC)N(C)[C@H]1[C@@](O)(C(=O)OC)[C@H](OC(C)=O)[C@]4(CC)CC=CN5CC[C@]31[C@@H]54)C2 | > 1000 | > 1000 | –
CC[C@]1(O)C[C@H]2CN(CCc3c([nH]c4ccc(SC)cc34)[C@@](C(=O)OC)(c3cc4c(cc3OC)N(C)[C@H]3[C@@](O)(C(=O)OC)[C@H](OC(C)=O)[C@]5(CC)CC=CN6CC[C@]43[C@@H]65)C2)C1 | 2 | 0.6 | T/C [5]: 243%; T/C [6]: 110%
CCC1=C[C@H]2CN(C1)Cc1c([nH]c3ccc(C(=O)O)cc13)[C@@](C(=O)OC)(c1cc3c(cc1OC)N(C)[C@H]1[C@@](O)(C(=O)OC)[C@H](OC(C)=O)[C@]4(CC)CC=CN5CC[C@]31[C@@H]54)C2 | > 1000 | > 1000 | –
CCC1=C[C@H]2CN(C1)Cc1c([nH]c3ccc(SC)cc13)[C@@](C(=O)OC)(c1cc3c(cc1OC)N(C)[C@H]1[C@@](O)(C(=O)OC)[C@H](OC(C)=O)[C@]4(CC)CC=CN5CC[C@]31[C@@H]54)C2 | 1 | 0.3 | T/C [6]: 124%; T/C [7]: 102%
CC[C@]1(O)C[C@H]2CN(CCc3c([nH]c4ccc(C)cc34)[C@@](C(=O)OC)(c3cc4c(cc3OC)N(C)[C@H]3[C@@](O)(C(=O)OC)[C@H](OC(C)=O)[C@]5(CC)CC=CN6CC[C@]43[C@@H]65)C2)C1 | 0.3 | 0.3 | T/C [4]: 181%; T/C [8]: 133%
CC[C@]1(O)C[C@@H]2CN(CCc3c([nH]c4ccccc34)[C@@](C(=O)OC)(c3cc4c(cc3OC)N(C)[C@H]3[C@@](O)(C(=O)OC)[C@H](OC(C)=O)[C@]5(CC)C=CCN6CC[C@]43[C@@H]65)C2)C1 [VINBLASTINE] | 0.4 | 0.9 | –
CC[C@]1(O)C[C@H]2CN(CCc3c([nH]c4ccccc34)[C@@](C(=O)OC)(c3cc4c(cc3OC)N(C=O)[C@H]3[C@@](O)(C(=O)OC)[C@H](OC(C)=O)[C@]5(CC)C=CCN6CC[C@]43[C@@H]65)C2)C1 [VINCRISTINE] | 1.5 | 1.7 | –
CCC1=C[C@@H]2CN(C1)Cc1c([nH]c3ccccc13)[C@@](C(=O)OC)(c1cc3c(cc1OC)N(C)[C@H]1[C@@](O)(C(=O)OC)[C@H](OC(C)=O)[C@]4(CC)C=CCN5CC[C@]31[C@@H]54)C2 [VINORELBINE] | 2.4 | 2.7 | T/C [3]: 117%; T/C [4]: 114%; mortality at 72 h [9]: > 10%

Reference: ChEMBL document CHEMBL1136853, “Synthesis and SAR of vinca alkaloid analogues” (Bioorg Med Chem Lett, 2009)
